In patent publication US20070155730A1, “Benzodiazepine And Benzopiperazine Analog Inhibitors Of Histone Deacetylase” (METHYLGENE, INC., priority 2005, published 2007):

Biological target: histone deacetylase (HDAC)
Test: Inhibition of Histone Deacetylase Enzymatic Activity
Assay type: biochemical
Details: substrate Boc-Lys(Ac)-AMC, Fluor-de-Lys developer, 37° C., 20 min; against one or more of HDAC-1 to HDAC-11, SirT1 to SirT7 (isoform not given); read-out: HDAC Inhibitory Activity (IC50)
Summary of the method: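 Enzyme preincubated with compound at room temperature in 25 mM HEPES pH 8.0, 137 mM NaCl, 2.7 mM KCl, 1 mM MgCl2; reaction started at 37 °C with Boc-Lys(Ac)-AMC substrate. Fluorescence read ex 360/em 470 nm after 10 min dark incubation; activity binned into ranges A–D (<0.05 to <10 μM).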

| SMILES | IC50 [µM] |
| --- | --- |
| COc1ccc(CN2c3ccccc3NC(=O)[C@H]2CCC(=O)CCC(=O)NO)cc1 [Compound 43, 6-((R)-1-(4-methoxybenzyl)-1,2,3,4-tetrahydro-3-oxoquinoxalin-2-yl)-N-hydroxy-4-oxy-hexanamide] | 2 to 10 |
| COc1ccc(CN2c3ccccc3NC(=O)C2CCCCCC(=O)Nc2cc(-c3cccs3)ccc2N)cc1 (stereo not drawn) [Compound 49, 6-(1-(4-methoxybenzyl)-1,2,3,4-tetrahydro-3-oxoquinoxalin-2-yl)-N-(2-amino-5-(thiophen-2-yl)phenyl)hexanamide] | 0.05 to 0.5 |
| O=C(NO)c1ccc(NC(=O)N2c3ccccc3NC(=O)[C@H]2Cc2ccc(F)c(F)c2)cc1 [Compound 116, (R)-2-(3,4-Difluorobenzyl)-N-(4-(hydroxycarbamoyl)phenyl)-3-oxo-3,4-dihydroquinoxaline-1(2H)-carboxamide] | < 0.05 |
| CC(C)[C@@H]1Nc2ccc(C(=O)NO)cc2NC1=O [Compound 4a, (S)-1,2,3,4-Tetrahydro-N-hydroxy-2-isopropyl-3-oxoquinoxaline-6-carboxamide] | 2 to 10 |
| O=C(NO)c1ccc2c(c1)NC(=O)[C@H](Cc1ccccc1)N2 [Compound 4i, (S)-2-Benzyl-1,2,3,4-tetrahydro-N-hydroxy-3-oxoquinoxaline-6-carboxamide] | 2 to 10 |
| O=C(NO)c1ccc(CN2c3ccccc3NC(=O)[C@H]2Cc2ccccc2)cc1 [Compound 54b5, (R)-4-((2-benzyl-3-oxo-3,4-dihydroquinoxalin-1(2H)-yl)methyl)-N-hydroxybenzamide] | < 0.05 |
| O=C(NO)c1cccc(NC(=O)N2c3ccccc3NC(=O)[C@H]2Cc2ccc(F)c(F)c2)c1 [Compound 118, (R)-2-(3,4-difluorobenzyl)-N-(3-(hydroxycarbamoyl)phenyl)-3-oxo-3,4-dihydroquinoxaline-1(2H)-carboxamide] | 0.05 to 0.5 |
| CC(C)(C)Oc1ccc(C[C@@H]2C(=O)Nc3ccccc3N2Cc2ccc(C(=O)NO)cc2)cc1 [Compound 54b11, (R)-4-((2-(4-tert-butoxybenzyl)-3-oxo-3,4-dihydroquinoxalin-1(2H)-yl)methyl)-N-hydroxybenzamide] | < 0.05 |
| O=C(CCCCCN1C(=O)[C@H](C2CCCCC2)NC(=O)c2ccccc21)NO [Compound 68b19, 6-((S)-3-Cyclohexyl-2,3,4,5-tetrahydro-2,5-dioxobenzo[e][1,4]diazepin-1-yl)-N-hydroxyhexanamide] | 0.5 to 2 |
| O=C(NO)c1ccc(CN2c3ccccc3NC(=O)[C@H]2Cc2ccc(C(F)(F)F)cc2)cc1 [Compound 54b17, (R)-4-((2-(4-trifluoromethylbenzyl)-3-oxo-3,4-dihydroquinoxalin-1(2H)-yl)methyl)-N-hydroxybenzamide] | 0.05 to 0.5 |
| O=C(CCCCCC1NC(=O)c2ccccc2N(CCc2ccccc2)C1=O)NO (stereo not drawn) [Compound 83, 6-(2,3,4,5-tetrahydro-2,5-dioxo-1-phenethyl-1H-benzo[e][1 ,4]diazepin-3-yl)-N-hydroxyhexanamide] | 0.5 to 2 |
| CC(C)(C)Oc1ccc(C[C@@H]2Nc3ccc(C(=O)NO)cc3NC2=O)cc1 [Compound 4h, (S)-2-(4-tert-butoxybenzyl)-1,2,3,4-tetrahydro-N-hydroxy-3-oxoquinoxaline-6-carboxamide] | 2 to 10 |
| O=C(NO)c1ccc2c(c1)NC(=O)[C@H](Cc1cn(C(c3ccccc3)(c3ccccc3)c3ccccc3)cn1)N2 [Compound 4g, (S)-1,2,3,4-tetrahydro-N-hydroxy-3-oxo-2-((1-trityl-1H-imidazol-4-yl)methyl)quinoxaline-6-carboxamide] | 2 to 10 |
| O=C(NO)c1ccc(CN2c3ccccc3NC(=O)[C@H]2Cc2ccc(F)cc2)cc1 [Compound 54b15, (R)-4-((2-(4-fluorobenzyl)-3-oxo-3,4-dihydroquinoxalin-1(2H)-yl)methyl)-N-hydroxybenzamide] | < 0.05 |
| CC(C)(C)C[C@H]1NC(=O)c2ccccc2N(CCCCCC(=O)NO)C1=O [Compound 68b18, 6-((R)-2,3,4,5-Tetrahydro-3-neopentyl-2,5-dioxobenzo[e][1,4]diazepin-1-yl)-N-hydroxyhexanamide] | 0.05 to 0.5 |
| O=C(CCCCCC1NC(=O)c2ccccc2N(Cc2ccccc2)C1=O)NO (stereo not drawn) [Compound 80, 6-(1-Benzyl-2,3,4,5-tetrahydro-2,5-dioxo-1H-benzo[e][1,4]diazepin-3-yl)-N-hydroxyhexanamide] | 0.05 to 0.5 |
| C[C@@H]1NC(=O)c2ccccc2N(CCCCCC(=O)NO)C1=O [Compound 68b22, 6-((S)-2,3,4,5-Tetrahydro-3-methyl-2,5-dioxobenzo[e][1,4]diazepin-1-yl)-N-hydroxyhexanamide] | 0.5 to 2 |
| O=C(NO)c1ccc(CN2c3ccccc3NC(=O)[C@H]2Cc2cccnc2)cc1 [Compound 54b21, (R)—N-hydroxy-4-((3-oxo-2-(pyridin-3-ylmethyl)-3,4-dihydroquinoxalin-1(2H)-yl)methyl)benzamide] | < 0.05 |

Other lines, results leading:

| IC50 [µM] | SMILES |
| --- | --- |
| 2 to 10 | CC(C)[C@H]1NC(=O)c2ccc(C(=O)NO)cc2NC1=O [Compound 97a, (R)—N-Hydroxy-3-isopropyl-2,5-dioxo-2,3,4,5-tetrahydro-1H-benzo[e][1,4]diazepine-8-carboxamide] |
| 0.05 to 0.5 | O=C(CCCCCC1NC(=O)c2cc(NC(=O)OCc3ccccc3)ccc2NC1=O)NO (stereo not drawn) [Compound 92a, 6-(7-Benzyloxycarbonylamino-2,3,4,5-tetrahydro-2,5-dioxo-1H-benzo[e][1,4]diazepin-3-yl)-N-hydroxyhexanamide] |
| 0.5 to 2 | CC(C)[C@H]1C(=O)Nc2cc(C(=O)NO)ccc2N1Cc1ccc(O)cc1 [Compound 16b, (S)-1-(4-hydroxybenzyl)-1,2,3,4-tetrahydro-N-hydroxy-2-isopropyl-3-oxoquinoxaline-6-carboxamide] |
| < 0.05 | CC(C)[C@H]1Nc2ccc(NC(=O)CCCCCCC(=O)NO)cc2NC1=O [Compound 24e, N1—((R)-1,2,3,4-Tetrahydro-2-isopropyl-3-oxoquinoxalin-6-yl)-N8-hydroxyoctanediamide] |
| 0.5 to 2 | CC(C)[C@H]1C(=O)Nc2cc(C(=O)NO)ccc2N1Cc1ccc2ccccc2c1 [Compound 16h, (S)-1,2,3,4-tetrahydro-N-hydroxy-2-isopropyl-1-((naphthalen-3-yl)methyl)-3-oxoquinoxaline-6-carboxamide] |
| 0.5 to 2 | O=C(CO[C@@H]1CC(C(=O)Nc2cccc3cccnc23)N(C(=O)OCc2ccccc2)C1)NO (stereo partly drawn) [Compound 112b, (2S,4R)-benzyl 4-(2-(hydroxyamino)-2-oxoethoxy)-2-(quinolin-8-ylcarbainoyl) pyrrolidine-1-carboxylate] |
| 2 to 10 | COc1ccc(CN2c3ccccc3NC(=O)C2CCCCCC(=O)Nc2ccccc2N)cc1 (stereo not drawn) [Compound 47b, 6-(1-(4-methoxybenzyl)-1,2,3,4-tetrahydro-3-oxoquinoxalin-2-yl)-N-(2-aminophenyl)hexanamide] |
| 2 to 10 | O=C(NO)c1ccc2c(c1)NC(=O)[C@H](Cc1ccc(O)cc1)N2 [Compound 6h, (S)-2-(4-Hydroxybenzyl)-1,2,3,4-tetrahydro-N-hydroxy-3-oxoquinoxaline-6-carboxamide] |
| 0.05 to 0.5 | COc1ccc(CN2c3ccc(NC(=O)CCCCCCC(=O)NO)cc3NC(=O)[C@H]2C(C)C)cc1 [Compound 26e, N1—((R)-1-(4-Methoxybenzyl)-1,2,3,4-tetrahydro-2-isopropyl-3-oxoquinoxalin-6-yl)-N8-hydroxyoctanediamide] |
| 0.5 to 2 | O=C(NO)c1ccc2c(c1)NC(=O)[C@H](Cc1c[nH]c3ccccc13)NC2=O [Compound 97c, (S)-3-((1H-Indol-3-yl)methyl)-N-hydroxy-2,5-dioxo-2,3,4,5-tetrahydro-1H-benzo[e][1,4]diazepine-8-carboxamide] |
| 2 to 10 | CC(C)C[C@H]1NC(=O)c2ccc(C(=O)NO)cc2NC1=O [Compound 97f, (R)-N-Hydroxy-3-isobutyl-2,5-dioxo-2,3,4,5-tetrahydro-1H-benzo[e][1,4]diazepine-8-carboxamide] |
| 0.05 to 0.5 | O=C(NO)c1ccc(O[C@H]2C[C@H](C(=O)Nc3cccc4cccnc34)N(C(=O)OCc3ccccc3)C2)cc1 [Compound 109c, (2R,4S)- Benzyl 4-(4-(hydroxycarbamoyl)phenoxy)-2-(quinolin-8-ylcarbainoyl) pyrrolidine-1-carboxylate] |
